One test concerns hCASMC. The experiment in a line: Osteogenic assay: calcification of human coronary artery smooth muscle cells. It is filed as cell-based. Conditions: inhibitor 10 μM, osteogenic media, 21 days (FIG. 16D, FIG. 6E). As for the experimental part:
Scalebar 100 μm (middle panel). Quantification of PLA signal is shown on the right graphs. n=4. […] Diagram depicting STAT5 and TERT binding RUNX2 promoter and the positions of the predicted STAT5 binding sites (bottom panel). […] Scalebar 400 μm n=8; means±SD. Quantification of calcification is shown on the right graph. Data is represented as means±SD. P were calculated by Kruskal-Wallis H test with Dunn pairwise comparison post hoc test. Scalebar 400 um. […] When the cells reached confluence, media was replaced with osteogenic media (Minimum Essential Medium alpha with nucleosides, 10% FBS, 1×P/S, 10 mM glycerol phosphate, 50 μM ascorbic acid 2-phosphate, and 100 nM dexamethasone) for 21 days. No treatment media consisted of Minimum Essential Medium alpha with nucleosides, 10% FBS, 1×P/S. Media was replaced every four days.
Quantification of protein levels. n=4 control, n=4 CAVD; means±SD; two-way ANOVA. […] Scalebar 100 um. Quantification of PLA is shown on the right graph. n=4. […] P were calculated by Kruskal-Wallis H test with Dunn pairwise comparison post hoc test. Scalebar 400 um. […] Scalebar 50 um.
Human cell isolation. Patient-specific lines were established by using the same valves for histopathology, RNA, and cell isolation. Primary aortic valve interstitial cells (AVICs) were obtained from the patient aortic valve. […]
Alizarin Red Staining and Quantification. […]

For test [1], the system named is human aortic valve interstitial cells (AVICs). Nature of the test: Osteogenic assay: calcification of human AVICs in osteogenic media (Alizarin Red). It is filed as cell-based. Particulars: for calcification of AVICs: STAT5 inhibitor 10 μM added every two days during osteogenic (OST) treatment, after 21 days of treatment (FIG. 6D). As for the experimental part:
Human cell isolation. Patient-specific lines were established by using the same valves for histopathology, RNA, and cell isolation. Primary aortic valve interstitial cells (AVICs) were obtained from the patient aortic valve. Briefly, leaflets were washed with PBS containing 10 mg/ml gentamicin (GIBCO) and 250 μg/ml fungizone (GIBCO) and dissociated with 0.1% collagenase II at 37 C and 5% of CO2 for 18 hours. Then, the tissue was further dissociated by gently mixing it by pipetting with a serological pipette to ensure the release of A VICs and then passed through a […] filter to remove debris. Cells were pelleted and then resuspended in Dulbecco's Modified Eagle's Medium (DMEM) supplemented with 10% fetal bovine serum (FBS) and 1×penicillin-streptomycin (P/S). Human coronary artery smooth muscle cells (CASMC) were obtained from patient coronary. Briefly, vessels were washed with PBS containing 10 mg/ml gentamicin (GIBCO) and 250 μg/ml fungizone (GIBCO). Vessels were cut open to expose the lumen and intima and adventitia were gently scrapped. Vessels were then sectioned and dissociated with 0.1% collagenase II for 3 hrs. Cells were pelleted and then seed and expanded.
(§1) Cell Culture. AVICs lines were expanded in Dulbecco's Modified Eagle's Medium supplemented with 10% fetal bovine serum and 1×penicillin-streptomycin. Cells were used between passages 4 and 15. Growth media was changed every three days, and cells were split 1:2 when confluent. CASMC lines were expanded in smooth muscle media SMGM (CC-3181) supplemented with BULLETKIT (CC-4149). Human MSCs (PT-2501, Lonza) were expanded on Minimum Essential Medium alpha without nucleosides and supplemented with 10% fetal bovine serum and 1×penicillin-streptomycin and used between passages 4 and 10. Cells are routinely tested for mycoplasma contamination.
(§2) Osteogenic Assay. […]
(§3) Alizarin Red Staining and Quantification. […] Absorbance was at 405 nm using a 96-well plate spectrophotometer.

The next test deals with hMSCs. Nature of the test: Osteogenic assay: calcification of human mesenchymal stem cells. It is filed as cell-based. Particulars: inhibitor 10 μM, osteogenic media, 21 days (FIG. 17). As to the method:
When cells reached confluence, media was replaced with osteogenic media (Minimum Essential Medium alpha with nucleosides, 10% FBS 1×P/S, 10 mM glycerol phosphate, 50 uM ascorbic acid 2-phosphate, and 100 nM dexamethasone) for 21 days. No treatment media consisted of Minimum Essential Medium alpha with nucleosides, 10% FBS, 1×P/S. Media was replaced every four days. […] P were calculated by Kruskal-Wallis H test with Dunn pairwise comparison post hoc test. Scalebar 400 μm.
as §1, §2, §3

Another test addresses T1, STAT5A (Homo sapiens, UniProt P42229).
T1 sequence (P42229 1-794): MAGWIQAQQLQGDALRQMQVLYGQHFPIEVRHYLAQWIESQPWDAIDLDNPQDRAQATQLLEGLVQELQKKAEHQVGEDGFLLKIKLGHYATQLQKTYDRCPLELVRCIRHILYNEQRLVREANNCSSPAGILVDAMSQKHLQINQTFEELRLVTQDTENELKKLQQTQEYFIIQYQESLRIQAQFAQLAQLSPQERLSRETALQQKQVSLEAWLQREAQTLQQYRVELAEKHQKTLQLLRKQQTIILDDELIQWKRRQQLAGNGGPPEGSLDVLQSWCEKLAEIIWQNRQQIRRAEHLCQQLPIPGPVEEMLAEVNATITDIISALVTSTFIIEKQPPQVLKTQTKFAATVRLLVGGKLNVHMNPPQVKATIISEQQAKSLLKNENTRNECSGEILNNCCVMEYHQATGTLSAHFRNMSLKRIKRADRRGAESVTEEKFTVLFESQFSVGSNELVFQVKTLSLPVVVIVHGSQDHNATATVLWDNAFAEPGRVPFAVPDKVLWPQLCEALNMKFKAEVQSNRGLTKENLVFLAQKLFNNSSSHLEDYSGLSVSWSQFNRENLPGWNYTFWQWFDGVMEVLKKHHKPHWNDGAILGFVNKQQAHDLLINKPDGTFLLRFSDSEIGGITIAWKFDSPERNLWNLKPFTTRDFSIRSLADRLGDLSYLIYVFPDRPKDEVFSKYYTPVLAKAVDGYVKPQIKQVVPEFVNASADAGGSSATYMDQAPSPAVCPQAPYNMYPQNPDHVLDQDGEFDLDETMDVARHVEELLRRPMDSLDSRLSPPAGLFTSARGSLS
Conditions: as reported; cited from earlier work.

For the compound `O=C(COc1ccc2cc(C(=O)Nc3ccccc3)ccc2c1)NCc1ccc(OP(=O)(O)O)c(OP(=O)(O)O)c1` [StafiB-1], in the test on hCASMC, the “calcification in hCASMC” value is “did not”. For the same compound, the “calcification of AVICs” value in test [1] was “this inhibition was of a greater extent than the inhibition observed when AVICs were treated with StafiB-1”.

Consider `COc1cc(-c2cc(OP(=O)(O)O)cc(-c3cc(OC)c(OC)c(OC)c3)c2)cc(OC)c1OC` [StafiA-1], for which the “calcification in hMSCs” value in the test on hMSCs is recorded as “significantly reduced the calcification”. In addition, in the test with hCASMC, the “calcification in hCASMC” value is on record as “significantly reduced the calcification”. For the same compound, the “calcification of AVICs” value in test [1] was “significantly inhibited calcification”. In addition, on STAT5A, the “specific inhibition of STAT5A isoform” value is given as “specifically inhibit”.

On to `C/C(=C\C(=O)Nc1ccccc1C(=O)O)c1ccc2ccccc2c1` [BIBR1532], for which the “ability of AVICs to calcify” value in test [1] (BIBR1532 at 1, 10, or 100 nM added every two days during OST treatment, 28 days (FIG. 13C)) is on record as “did not alter the ability of AVICs to calcify”.

Values taken from patent US20260256761A1, “COMPOSITIONS AND METHODS FOR THE IDENTIFICATION OF INHIBITORS OF AND TREATMENT FOR ECTOPIC CALCIFICATION” (UNIVERSITY OF PITTSBURGH-OF THE COMMONWEALTH SYSTEM OF …, priority 2022, published 2026).
